Reference: US10160785B2, “Antimicrobial peptides and their use for the treatment of topical infections” (priority 2015, dated 2018)
Where a SMILES comes first, the peptide text is derived from it.

Experiments:
[1] = tested on: P. aeruginosa (Liberec) biofilm; assay: Bacterial biofilm, remaining metabolic activity (MTT); assay type: cell-based, Pseudomonas aeruginosa; conditions: remaining metabolic activity of biofilm, 20 h
In short: (§1)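 Biofilms of S. aureus or P. aeruginosa (Liberec) were grown 24 h at 37° C with shaking in BHI plus 1% glucose from ca. 10^8 CFU/ml inocula. After washing, biofilms were exposed 20 h to peptides at 1–128 μmol.l^−1. Surviving metabolic activity was measured by MTT (40 min, formazan in DMSO, A540) as percent of untreated biofilm, blank-corrected.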

[2] = tested on: S. aureus (Liberec) biofilm; assay: as above; assay type: cell-based, Staphylococcus aureus; conditions: remaining metabolic activity of biofilm, 20 h
In short: as §1

[3] = peptide concentration 8 μmol · l^−1
[4] = peptide concentration 16 μmol · l^−1
[5] = peptide concentration 32 μmol · l^−1
[6] = peptide concentration 64 μmol · l^−1
[7] = peptide concentration 128 μmol · l^−1

CCCC[C@H](NC(=O)[C@H](CC(C)C)NC(=O)[C@H](CO)NC(=O)[C@H](CO)NC(=O)[C@H](CCCC)NC(=O)[C@@H](NC(=O)CN)[C@@H](C)CC)C(=O)N[C@@H](CCCCN)C(=O)N[C@@H](CCCCN)C(=O)N[C@@H](CC(C)C)C(=O)N[C@@H](CCCCN)C(=O)N[C@@H](CCCCN)C(=O)N[C@H](C(=O)N[C@H](C(=O)N[C@@H](C)C(=O)N[C@@H](CCCCN)C(N)=O)[C@@H](C)CC)[C@@H](C)CC [V] (HELM PEPTIDE1{G.I.[Nle].S.S.L.[Nle].K.K.L.K.K.I.I.A.K.[am]}$$$$V2.0)
Metabolic activity (%) P. aeruginosa (Liberec) [1, 3]: 65.5% | Metabolic activity (%) P. aeruginosa (Liberec) [1, 4]: 59.8% | Metabolic activity (%) P. aeruginosa (Liberec) [1, 5]: 64.9% | Metabolic activity (%) P. aeruginosa (Liberec) [1, 6]: 61.4% | Metabolic activity (%) P. aeruginosa (Liberec) [1, 7]: 49.3% | Metabolic activity (%) S. aureus (Liberec) [2, 3]: 83.0% | Metabolic activity (%) S. aureus (Liberec) [2, 4]: 71.0% | Metabolic activity (%) S. aureus (Liberec) [2, 5]: 49.5% | Metabolic activity (%) S. aureus (Liberec) [2, 6]: 26.0% | Metabolic activity (%) S. aureus (Liberec) [2, 7]: 0.0%
